Results on eleven compounds are retold here after patent publication US20100240754A1, “UNSATURATED FATTY AMINO ACID DERIVATIVES AND USE THEREOF IN DERMAL COSMETOLOGY” (Pierre Fabre Demo-Cosmetique, priority 2007, published 2010).

Broadly, the melting point is the temperature of the solid-liquid transition.

Where two headings read alike, the source gives them in different places.

Data set [1] deals with fibroblast cell line L929. Put plainly: In vitro assay of intracellular OASes (H2DCF-DA probe) after H2O2/iron oxidative stress. The format is cell-based, murine. As to conditions: Mus musculus, L929, 3 h pretreatment, H2O2 200 μM / iron 2 mM, read-out: percentage of inhibition of intracellular OAS production (protection); for inhibition at 20 pg/mL: dose 0.02 ng/mL; for inhibition at 0.0002 µg/mL: dose 0.2 ng/mL; for inhibition at 0.002 µg/mL: dose 2 ng/mL; for inhibition at 0.02 µg/mL: dose 20 ng/mL. An excerpt:
We have set up a model for an in vitro study of oxidative stress induced by H2O2/iron, H2O2 which massively generates intracellular OASes by a chain reaction triggered by the oxidation of membrane lipids.
This technique is based on the use of a fluorescent probe, 6-carboxy-2′, 7′ dichlorodihydrofluorescein diacetate, di(acetoxymethyl ester) (H2DCF-DA), which, once it has penetrated the cell, is deacetylated by the intracellular esterases then forming H2DCF. This product is oxidized by intracellular OASes into a highly fluorescent compound: 2′,7′-dichlorofluorescein, (DCF) (Suematsu M et al, 1996, Free Radicals Practical Approach, Punchard ed. P83-99).
Cutaneous murine fibroblast cell line L929.
The tested concentrations are non-cytotoxic concentrations. Cytoxicity was evaluated by the neutral red method, after incubation of the product for 3 hours.
The reference anti-radical product is vitamin E or α-tocopherol (MW: 430.7) (SIGMA, ref.: T-1539).
The mother solution is prepared at 400 mg/mL in DMSO and stored at −20° C. The pretreatment solution is prepared extemporaneously at 400 μg/mL in a culture medium without FCS.
For evaluating unsaturated fatty amino acid derivatives, the dilutions are prepared in the culture medium extemporaneously for a range of concentrations of 0.02, 0.2, 2 and 20 ng/mL.
The cells of the fibroblast line L929 are sown in microplates with 96 wells with a flat bottom in 100 μL of DMEM supplemented with 10% of FCS, and they are then incubated overnight at 37° C. in a humid atmosphere with 5% CO2.
The dilutions of the products to be tested and of the reference molecule are conducted in culture mediums without FCS, and then deposited in 7 wells in an amount of 100 μL per well.
The cells are then incubated for 3 hours at 37° C. in a humid atmosphere with 5% CO2.
The cells are rinsed with PBS 1× in an amount of 100 μL per well. Next they are set to incubate for 30 min at 37° C. in a humid atmosphere with 5% CO2 and with 50 μL of H2DCF-DA probe at 5 μM.
After 30 min in contact with the probe alone, the cells are incubated for 30 min at 37° C. in a humid atmosphere with […] with addition of 25 μL of H2O2 at 800 μM and 25 μL of 8 mM ferrous and ferric iron solution, in order to have final concentrations of 200 μM of H2O2 and 2 mM of ferrous and ferric iron.
The cells are then rinsed with PBS 1× in an amount of 100 μL per well, and then incubated for 30 min at 37° C. in a humid atmosphere with 5% CO2 and with 100 μL of PBS 1×.
These 1 h 30 minutes of incubation at 37° C. allow the intracellular esterases to deacetylate the H2DCF probe, oxidizable by intracellular OASes into DCF; a fluorescent compound, the formation of which is proportional to the amount of intracellular OASes.
The fluorescence intensity is read with the cytofluorimeter at λexcitation=485 nm and λemission=530 nm. It reflects the amount of produced intracellular OASes.
With the below ratio, it is possible to calculate for each concentration of tested product the % of protection against production of intracellular OASes (since the fluorescence intensity or FI expresses intracellular release of OASes).
The values indicated in Table 3 are percentages of inhibition of intracellular OAS production following an exogenous oxidative stress, relatively to <> cells (100%) and to <> cells (0%).

The subject of another data set is production of PG6KF1α. Briefly: Production of prostaglandin 6KF1α by keratinocytes stimulated with calcium ionophore A23187 (ELISA). The format is cell-based. The settings on record: for inhibition at 3 µg/mL: Keratinocyte, read-out: Inhibitory activity % of molecules evaluated on the production of PG6KF1α; for effective dose 45 (DE45), production of PG6KF1α: keratinocytes stimulated with A23187; for anti-inflammatory potentialities (PG6KF1α production), in words: summary of Table 1 data. On the procedure: The prostaglandin PG6KF1 alpha, is one of the major metabolites produced by the stimulated keratinocyte, and representative of the modulation of the production of metabolites of the metabolism of arachidonic acid stemming from the cyclo-oxygenase route.
The suspension of keratinocytes in DMEM with 10% FCS is distributed in plates of 6 wells (1.2 106 cells/well), and incubated for 16 hours at 37° C. in an atmosphere with 5% CO2. The keratinocytes are then rinsed with PBS in order to eliminate non-adherent cells and then exposed to the products to be tested included in DMEM without FCS (which might interfere in the assay).
The tested culture concentration is 3 μg/mL. It was retained after a preliminary test for evaluating cytotoxicity (neutral red) and it is not cytotoxic.
For each treatment, 3 wells were produced. The cells were pre-incubated for 60 min with the products to be tested and then an agent stimulating the cascade of arachidonic acid, the calcium ionophore, is added for 5 hours: the calcium ionophore A23187 is used at a concentration of 1 μM.
After these 5 hours of culture, the culture media of each of the wells are recovered, centrifuged at 3,000 rpm and stored at −80° C.
The production of prostaglandin 6KF1α for each of the tests is measured with the Elisa kit EUROMEDEX.
The results are gathered in Table 1 and are expressed in percentage of activity/stimulated control.

The next data set concerns B16-F10 line. Briefly: Synthesis of melanin, colorimetric assay, basal and after alpha MSH stimulation. The format is cell-based, murine. As to conditions: B16-F10; for inhibition at 30 µg/mL: Mus musculus, 30 μg/mL. On the procedure:
6.1) The modulating effect of unsaturated fatty amino-acid derivatives on melanogenesis was analyzed. For this, a measurement of the synthesis of melanin by a colorimetric assay is carried out on a cell line of murine melanomas: the B16-F10 line.
The effect of the products is investigated in a basal situation and after stimulating melanogenesis by a MSH for determining the depigmenting power.
The level of extracellular and intracellular melanin is then measured by spectrophotometry at a wave length of 405 nm according to the procedure (Meun, Y. J. et al.). The amount of pigment is determined by a standard range of melanin and by analysis on the Microwin software package (Berthold Biotechnologies). An assay of total proteins is conducted for samples of intracellular melanin by the BCA-Copper method at 540 nm. The standard range is produced with a standard protein, BSA (Bovine Albumin Serum).

Another data set relates to production of IL8. Briefly: Production of interleukin 8 induced in keratinocytes by PMA and calcium ionophore A23187 (ELISA). The format is cell-based. The settings on record: Keratinocyte; keratinocytes stimulated with PMA + A23187; read-out: effective dose 50 (DE50), production of IL8.
Setting [2] is: 3 μg/mL, keratinocytes, 60 min pre-incubation, calcium ionophore A23187 1 μM for 5 hours, percentage of activity/stimulated control.

Consider `Cl.NCCC/C=C/C(=O)O` [Compound No. 1, (E)-6-amino-hex-2-enoic acid], for which, in data set [1], the inhibition at 20 pg/mL stood at 12%, the inhibition at 0.0002 µg/mL came to 13%, the inhibition at 0.002 µg/mL amounted to 5% and the inhibition at 0.02 µg/mL was 1%. Further, the inhibition at 3 µg/mL in the data set on production of PG6KF1α (setting [2]) is less than 0%.
`NCCC/C=C(/F)C(=O)O` [Compound No. 2, (E)-6-amino-2-fluoro-hex-2-enoic acid]: in data set [1], the inhibition at 20 pg/mL amounted to 14%, the inhibition at 0.0002 µg/mL came to 19%, the inhibition at 0.002 µg/mL is 14% and the inhibition at 0.02 µg/mL is -13%. In the data set on production of PG6KF1α (setting [2]), the “Inhibitory activity % of molecules evaluated on the production of PG6KF1α” value was “~”.
With `Cl.NCCCC/C=C/C(=O)O` [Compound No. 4, (E)-7-amino-hept-2-enoic acid], in data set [1], the inhibition at 20 pg/mL was 13%, the inhibition at 0.0002 µg/mL came to 12%, the inhibition at 0.002 µg/mL was found to be 8% and the inhibition at 0.02 µg/mL is -14%. The inhibition at 3 µg/mL in the data set on production of PG6KF1α (setting [2]) was 18%.
`NCCCCC=C(F)C(=O)O` [Compound No. 5, (Z+E)-7-amino-2-fluoro-hept-2-enoic acid]: in data set [1], the inhibition at 20 pg/mL stood at 18%, the inhibition at 0.0002 µg/mL stood at 23%, the inhibition at 0.002 µg/mL turned out to be 26% and the inhibition at 0.02 µg/mL is 23%. The “pigmenting effect, in words” value with B16-F10 line is “weaker than that of molecule No. 6”. Moreover, the inhibition at 3 µg/mL in the data set on production of PG6KF1α (setting [2]) came out at 41%. Besides, in the data set on production of PG6KF1α, the “effective dose 45 (DE45), production of PG6KF1α” value came out at 25 µg/mL and the “anti-inflammatory potentialities (PG6KF1α production), in words” value (from here on “anti-inflammatory potentialities … in words”) is “anti-inflammatory potentialities”.
Consider `Cl.NCCCCC/C=C/C(=O)O` [Compound No. 7, (E)-8-amino-oct-2-enoic acid], for which, in data set [1], the inhibition at 20 pg/mL turned out to be 31%, the inhibition at 0.0002 µg/mL is 33%, the inhibition at 0.002 µg/mL turned out to be 26% and the inhibition at 0.02 µg/mL was 32%. In addition, the inhibition at 3 µg/mL in the data set on production of PG6KF1α (setting [2]) was determined as 36%. The “anti-inflammatory potentialities … in words” value in the data set on production of PG6KF1α is “anti-inflammatory potentialities”.
Turning to `Cl.NCCCCCC/C=C/C(=O)O` [Compound No. 8, (E)-9-amino-non-2-enoic acid], the melting point is 104 °C. Moreover, in data set [1], the inhibition at 20 pg/mL worked out at 22%, the inhibition at 0.0002 µg/mL came to 25%, the inhibition at 0.002 µg/mL amounted to 20% and the inhibition at 0.02 µg/mL worked out at 19%. Also, the inhibition at 3 µg/mL with production of PG6KF1α (setting [2]) stood at 8%.
`Cl.NCCCCCCC=C(F)C(=O)O` [Compound No. 9, 9-amino-2-fluoro-non-2-enoic acid] returned a melting point of 120 °C. Besides, in data set [1], the inhibition at 20 pg/mL stood at 18%, the inhibition at 0.0002 µg/mL is 20%, the inhibition at 0.002 µg/mL came out at 23% and the inhibition at 0.02 µg/mL came out at 18%. Further, the inhibition at 3 µg/mL with production of PG6KF1α (setting [2]) came to 17%.
As for `Cl.NCCCCCCCCCCCC=C(F)C(=O)O` [Compound No. 10, 14-amino-2-fluoro-tetradec-2-enoic acid], the melting point came out at 148.5 °C. In data set [1], the inhibition at 20 pg/mL is 20%, the inhibition at 0.0002 µg/mL worked out at 25%, the inhibition at 0.002 µg/mL was determined as 18% and the inhibition at 0.02 µg/mL amounted to 15%. Moreover, in the data set with production of PG6KF1α (setting [2]), the inhibition at 3 µg/mL amounted to 38%. Also, the “anti-inflammatory potentialities … in words” value in the data set with production of PG6KF1α is listed as “anti-inflammatory potentialities”.
Turning to `Cl.NCCCCCCCCCCC/C=C/C(=O)O` [Compound No. 11, (E)-14-amino-tetradec-2-enoic acid], the melting point came to 153 °C. In the data set with production of IL8, the EC50 worked out at 11 mg/L. In data set [1], the inhibition at 20 pg/mL was determined as 20%, the inhibition at 0.0002 µg/mL came out at 19%, the inhibition at 0.002 µg/mL worked out at 22% and the inhibition at 0.02 µg/mL amounted to 19%. In the data set on B16-F10 line (10 μg/mL), the “effect on the synthesis of melanin, in words” value is “without any effect”. For the same compound, the inhibition at 30 µg/mL in the data set with B16-F10 line (read-out: inhibition of the amount of extra-cellular melanin) stood at 30%. Also, the inhibition at 30 µg/mL with B16-F10 line (read-out: inhibition of the amount of intra-cellular melanin) was approximately 45%. Further, the inhibition at 3 µg/mL in the data set on production of PG6KF1α (setting [2]) turned out to be 40%. In the data set on production of PG6KF1α, the “effective dose 45 (DE45), production of PG6KF1α” value was determined as 10 µg/mL and the “anti-inflammatory potentialities … in words” value is “anti-inflammatory potentialities”.
Consider `NCCC/C=C(\F)C(=O)O` [compound 3, (Z)-6-amino-2-fluoro-hex-2-enoic acid], for which, in data set [1], the inhibition at 20 pg/mL was determined as 15%, the inhibition at 0.0002 µg/mL came to 11%, the inhibition at 0.002 µg/mL was 5% and the inhibition at 0.02 µg/mL was 1%. Also, the inhibition at 3 µg/mL in the data set on production of PG6KF1α (setting [2]) was found to be 22%.
Regarding `NCCCC/C=C(\F)C(=O)O` [compound 6, (Z)-7-amino-2-fluoro-hept-2-enoic acid], in data set [1], the inhibition at 20 pg/mL amounted to 31%, the inhibition at 0.0002 µg/mL came out at 30%, the inhibition at 0.002 µg/mL was 21% and the inhibition at 0.02 µg/mL stood at 26%. Further, the “increase of the amount of intracellular melanin” value in the data set with B16-F10 line (3, 10 and 30 μg/mL) is given as “about 100%”. In the data set with production of PG6KF1α (setting [2]), the inhibition at 3 µg/mL is 25%.
